According to PMC4809600, “The Influence of Chronic Wound Extracts on Inflammatory Cytokine and Histatin Stability” (PLoS ONE, 2016):
Where no end group is shown, it is not given here.

Assays:
[1] = Stability in chronic wound extracts (CWE), capillary zone electrophoresis; assay type: in vitro ADME, human; conditions: 37°C, CZE; for Percentage intact, CWE 2h / Percentage intact, CWE 4h / Percentage intact, CWE 8h / Percentage intact, CWE 16h / Percentage intact, CWE 24h / Percentage intact, CWE 48h / Percentage intact, CWE 72h / Percentage intact, CWE 96h: 1 mg/ml in PBS mixed 1:1 with CWE (1 mg/ml protein, pool of 5 donors) in PBS, UV 200 nm, ratio to imidazole
Excerpt: (§1) Debridement tissue was obtained from chronic ulcers of 15 patients with therapy resistant (arterio-venous) leg ulcers, according to procedures described earlier. In brief, moist, easily removable debridement material, essentially blood free, was collected from the ulcer surface and divided equally into two different solutions: (i) PBS (B. Braun, Melsungen, Germany), (ii) PBS with protease inhibitor cocktail (PIC) (1:100; v/v) (Sigma-Aldrich, Steinheim, Germany). The mixtures were gently shaken for 1 h at 4°C to elute proteins and centrifuged; the supernatants were stored at -80°C. Total protein content of the supernatant was measured using the BioRad Protein Assay (BioRad Laboratories, Hercules, California, USA) essentially as described by the supplier. Samples were diluted to 1 mg/ml protein and extracts of five different donors were pooled; three different pools of five donors were used in all experiments. The samples are referred to as chronic wound extracts (CWE).
(§2) To determine the stability of the different peptides in CWE, histatins and cytokines were dissolved in PBS at 1 mg/ml. Histatins and cytokines were incubated in a 1:1 ratio with (i) PBS, (ii) CWE in PBS, or (iii) CWE in PBS containing PIC, in a total volume of 25 μl. Imidazole (Sigma-Aldrich) was added as an internal standard, with a final concentration of 100 μg/ml. The mixtures were incubated at 37°C, and samples were taken at 0, 24, 48, 72 and 96 h. For histatins containing mixtures, additional samples were taken after 2, 4, 8 and 16 h of incubation.
(§3) The samples were analyzed with a BioFocus 2000 capillary zone electrophoresis system (Bio-Rad Laboratories, Hercules, CA, USA) equipped with an uncoated fused-silica capillary of internal diameter 50 μm and a length of 24 cm. Samples were loaded by pressure injection (5 psi/sec). Separation was performed at 10 kV (cathode at the detector side) at 20°C using 0.1 M phosphate buffer (pH 2.5) as electrolyte and monitored continuously at 200 nm. Peaks were quantified with the BioFocus Integrator software. In order to quantify the percentage of intact peptides remaining after incubation with CWE, the ratios of histatins, rhIL-6 or rhCXCL8 to internal standard was set at 100% at 0h, and the ratios at the other incubation time points were related to this.

[2] = Stability in CWE with protease inhibitor cocktail (PIC), capillary zone electrophoresis; assay type: in vitro ADME, human; conditions: 37°C, CZE, 0 h = 100%; for Percentage intact, CWE + PIC 2h / Percentage intact, CWE + PIC 4h / Percentage intact, CWE + PIC 8h / Percentage intact, CWE + PIC 16h / Percentage intact, CWE + PIC 24h / Percentage intact, CWE + PIC 48h / Percentage intact, CWE + PIC 72h / Percentage intact, CWE + PIC 96h: 1 mg/ml in PBS mixed 1:1 with CWE (1 mg/ml protein, pool of 5 donors) in PBS containing PIC (final 1:140 v/v), ratio to imidazole
Excerpt: as §1, §2, §3

## DSHEKRHHGYRRKFHEKHHSHREFPFYGDYGSNYLYDN [Hst1]
[1]; 0 h = 100%, experiment 1 of 3
  Percentage intact, CWE 2h: 83.2738%
  Percentage intact, CWE 4h: 58.4193%
  Percentage intact, CWE 16h: 8.0136%
  Percentage intact, CWE 48h: 0.0001%
  Percentage intact, CWE 72h: 0.0001%
  Percentage intact, CWE 96h: 0.0001%
[1]; 0 h = 100%, experiment 2 of 3
  Percentage intact, CWE 2h: 87.1828%
  Percentage intact, CWE 4h: 76.5418%
  Percentage intact, CWE 16h: 20.767%
  Percentage intact, CWE 48h: 0.0001%
  Percentage intact, CWE 72h: 0.0001%
  Percentage intact, CWE 96h: 0.0001%
[1]; 0 h = 100%, experiment 3 of 3
  Percentage intact, CWE 2h: 86.6201%
  Percentage intact, CWE 4h: 73.9107%
  Percentage intact, CWE 16h: 27.1396%
  Percentage intact, CWE 48h: 0.0001%
  Percentage intact, CWE 72h: 0.0001%
  Percentage intact, CWE 96h: 0.0001%
[1]; 8 h, 0 h = 100%, experiment 1 of 3
  Percentage intact, CWE 8h: 32.9227%
[1]; 8 h, 0 h = 100%, experiment 2 of 3
  Percentage intact, CWE 8h: 52.8031%
[1]; 8 h, 0 h = 100%, experiment 3 of 3
  Percentage intact, CWE 8h: 51.366%
[1]; 24 h, 0 h = 100%, experiment 1 of 3
  Percentage intact, CWE 24h: 1.592%
[1]; 24 h, 0 h = 100%, experiment 2 of 3
  Percentage intact, CWE 24h: 7.881%
[1]; 24 h, 0 h = 100%, experiment 3 of 3
  Percentage intact, CWE 24h: 13.5375%
[1]; human, chronic wound extracts (CWE), 1 mg/ml in PBS mixed 1:1 with CWE (1 mg/ml protein, pools of 5 donors), 8 h, 0 h = 100%, mean of 3 independent experiments, read-out: Original amount of peptide remaining intact after 8 h in CWE
  remaining at 8 h, 0.5 mg/ml: 46%
[1]; human, chronic wound extracts (CWE), 1 mg/ml in PBS mixed 1:1 with CWE (1 mg/ml protein, pools of 5 donors), 24 h, 0 h = 100%, mean of 3 independent experiments, read-out: Original amount of peptide remaining intact after 24 h in CWE
  remaining at 24 h, 0.5 mg/ml: 8%
[1]; human, chronic wound extracts (CWE), incubation with chronic wound extracts, 8 h, read-out: Breakdown (degradation) in CWE in 8 h
  metabolised at 8 h, 0.5 mg/ml: ~50%
[2]; experiment 1 of 3
  Percentage intact, CWE + PIC 2h: 91.8564%
  Percentage intact, CWE + PIC 4h: 81.1086%
  Percentage intact, CWE + PIC 8h: 76.5843%
  Percentage intact, CWE + PIC 16h: 72.2461%
  Percentage intact, CWE + PIC 48h: 73.7424%
  Percentage intact, CWE + PIC 72h: 64.2173%
  Percentage intact, CWE + PIC 96h: 48.0273%
[2]; experiment 2 of 3
  Percentage intact, CWE + PIC 2h: 90.6434%
  Percentage intact, CWE + PIC 4h: 81.649%
  Percentage intact, CWE + PIC 8h: 75.4466%
  Percentage intact, CWE + PIC 16h: 65.5164%
  Percentage intact, CWE + PIC 48h: 59.1893%
  Percentage intact, CWE + PIC 72h: 41.8342%
  Percentage intact, CWE + PIC 96h: 30%
[2]; experiment 3 of 3
  Percentage intact, CWE + PIC 2h: 99.1023%
  Percentage intact, CWE + PIC 4h: 84.0062%
  Percentage intact, CWE + PIC 8h: 82.0587%
  Percentage intact, CWE + PIC 16h: 70.9806%
  Percentage intact, CWE + PIC 48h: 54.0682%
  Percentage intact, CWE + PIC 72h: 36.0529%
  Percentage intact, CWE + PIC 96h: 21.2156%
[2]; 24 h, experiment 1 of 3
  Percentage intact, CWE + PIC 24h: 78.4236%
[2]; 24 h, experiment 2 of 3
  Percentage intact, CWE + PIC 24h: 69.711%
[2]; 24 h, experiment 3 of 3
  Percentage intact, CWE + PIC 24h: 68.9989%
[2]; human, with protease inhibitor cocktail (PIC), CWE with protease inhibitor cocktail (final 1:140 v/v), 24 h, mean of 3 independent experiments, read-out: Remaining fraction of intact peptide after 24 h in CWE + PIC
  remaining at 24 h, 0.5 mg/ml: 72%
